Reference: patent publication US12617767B2, “Crystalline forms of somatostatin modulators” (Crinetics Pharmaceuticals, Inc., priority 2019, dated 2026)
Marks after values point to notes of the source that are not given here. Each block holds one compound with its values, some of them ahead of it.

Key:
Assay type in all cases: physicochemical
[1] = Stability of XRPD pattern on drying; settings: for XRPD pattern upon drying: dimesylate
Procedure: Short term slurries were carried out at two temperatures in 14 solvents. About 25 mg solid was added to a 2 mL vial followed by 0.70 mL of solvent. If all solids dissolved, more solid was added until a slurry was formed within reason. Slurries were stirred at constant temperature for four days (ambient temperature, 21-23° C.; or high temperature, 50° C.). After stirring for four days, solids were allowed to settle and were then recovered for XRPD analysis. XRPD analysis was performed on the wet cake, and if a new pattern was observed, the sample was dried in a vacuum oven at 50° C. for a minimum of 4 hours, then the dried sample was analyzed by XRPD.
Stability on Drying: A sample of Pattern B was prepared on an XRPD sample holder and analysed by XRPD to create a baseline. The disk was then left in a vacuum oven at 50° C. under static vacuum for 3 days. On the third day, the sample was removed from the oven and the “dry” pattern was recorded immediately.
(§1) Compound A⋅2MSA (Pattern A) was slurried in EtOH overnight at room temperature (ca. 16 hours). […] The bulk was dried in a vacuum oven at 50° C. under dynamic vacuum for 4.5 hours. The dried solids were removed from the oven and a “dry” XRPD analysis was collected.

[2] = Kinetic solubility studies in FaSSIF and FeSSIF; settings: FeSSIF
Procedure: The solubility of the dimesylate (Pattern B) and mono-HCl salts of Compound A was determined in FaSSIF (pH 6.5) at 37° C. after a slurry time of 5, 20 and 40 minutes. FaSSIF was warmed to 37° C. and added to a vial of ca. 9 mg of the salt to mark t=0. The mixture was kept stirring at 37° C. and a sample drawn with a syringe at t+5, 20 and 40 minutes. The samples were syringe filtered and the filtrate was diluted 2× to ensure no precipitation while waiting for HPLC analysis. The pH of the solution collected at 40 minutes was measured. The slurry was sampled again the following day and the supernatant from syringe filtration was analyzed directly by HPLC without dilution. The same experiment was run with FeSSIF (pH 5.0).

[3] = Equilibrium solubility in simulated fluids and water at 37° C.; settings: for comments / Concentration: 24 hrs; for Concentration: mg of Compound A (free base); for Concentration / pH (24 hr): dimesylate
Procedure: The solubility Compound A⋅2MSA, Patterns A, B and I, was measured in water, fasted state simulated gastric fluid (FaSSGF) and fasted state simulated intestinal fluid (FaSSIF) at 37° C. by slurrying in the respective media for 24 hours. 1.5 mL of the fluid was stirred at 37° C. About 5 mg of the specified solid was added to FaSSIF and a thin slurry was immediately formed. As a test, approximately 80 and 60 mg of Pattern A was added to 1.5 mL of water and FaSSGF, respectively without formation of a slurry. Therefore, about 10 mg of the desired Pattern was added to water and FaSSGF solutions. The samples were allowed to stir at 37° C. for 24 hrs. The stir bars were removed from the FaSSIF vials and the solids allowed to settle for 0.5 hours at 37° C. The supernatant/solutions were syringe filtered and recovered for analysis by HPLC as well as for pH measurement.

[4] = Storage at ambient conditions (XRPD)
Procedure: Characterization after storage under ambient conditions: Pattern B was left at ambient conditions (21-22° C., 10-40% RH) for a week then characterized by)(RFD, TGA/DSC, and water content measured by Karl-Fischer titration. […] The water content was confirmed by KF titration which yielded a value of 4.20 wt. %.
Compound A⋅2MSA (Pattern A, 0.2622 g) was added to a 20 mL vial with a stir bar. Fifteen volumes (3.93 mL) of EtOH was added and the slurry was stirred overnight (˜20 hours). The slurry was sampled to confirm the correct pattern was generated, then the solids were collected by filtration. The resultant yellow solid was dried in a vacuum oven at 50° C. under dynamic vacuum for 2 hours, then under static vacuum overnight (˜16 hours) to yield 0.2015 g (77% yield). The in-situ sample drawn was dried for 3 hours then the solid was used for characterization by solution ^1H-NMR spectroscopy and simultaneous TGA/DSC. The bulk was dried overnight and used for stand-alone DSC, and thermal treatment.
as §1
Compound A⋅2MSA (Pattern A, 0.2659 g) was added to a 20 mL vial with a stir bar. Twenty-five volumes (6.65 mL) of ACN was added and the slurry was stirred overnight (˜20 hours). The slurry was sampled to confirm the correct pattern was generated, then the solids were collected by filtration. The resultant yellow solid was dried in a vacuum oven at 50° C. under dynamic vacuum for 2 hours, then under static vacuum overnight (˜16 hours) to yield 0.2255 g (85% yield). The sample drawn was dried for 3 hours then the solid was used for characterization by solution ^1H-NMR spectroscopy and simultaneous TGA/DSC. The bulk was dried overnight and used for stand-alone DSC.

[5] = Dynamic Vapor Sorption (DVS); settings: between 2% and 95% Relative Humidity (RH); dimesylate
Procedure: Dynamic Vapor Sorption (DVS) was done using a DVS Intrinsic 1. The sample is loaded into a sample pan and suspended from a microbalance. A typical sample mass for DVS measurement is 25 mg. Nitrogen gas bubbled through distilled water provides the desired relative humidity.
A typical measurement comprises the steps: • 1—Equilibrate at 50% RH • 2-50% to 2%. (50%, 40%, 30%, 20%, 10% and 2%) • a. Hold minimum of 5 mins and maximum of 240 minutes at each humidity. The pass criteria is less than 0.002% change • 3-2% to 95% (2%, 10%, 20%, 30%, 40%, 50%, 60%, 70%, 80%, 90%, 95%) • a. Hold minimum of 5 mins and maximum of 240 minutes at each humidity. The pass criteria is less than 0.002% change • 4-95% to 2% (95%, 80%, 70%, 60%, 50%, 40%, 30%, 20%, 10%, 2%) • a. Hold minimum of 5 mins and maximum of 240 minutes at each humidity. The pass criteria is less than 0.002% change • 5-2% to 50% (2%, 10%, 20%, 30%, 40%, 50%) • a. Hold minimum of 5 mins and maximum of 240 minutes at each humidity. The pass criteria is less than 0.002% change Dynamic Vapor Sorption Isotherm Plots of Solid Forms of Compound A⋅2MSA

[6] = solids from short term slurries, vacuum oven at 50° C., minimum of 4 hours
[7] = solids from amorphous slurry or antisolvent experiments

SMILES: CS(=O)(=O)O.CS(=O)(=O)O.N#Cc1cccc(-c2ccc3ncc(-c4cc(F)cc(F)c4)c(N4CCC(N)CC4)c3c2)c1O [Pattern E, 3-(4-(4-aminopiperidin-1-yl)-3-(3,5-difluorophenyl)quinolin-6-yl)-2-hydroxybenzonitrile dimesylate]
XRPD pattern upon drying [1, 6]: converted to Pattern A

SMILES: CS(=O)(=O)O.CS(=O)(=O)O.N#Cc1cccc(-c2ccc3ncc(-c4cc(F)cc(F)c4)c(N4CCC(N)CC4)c3c2)c1O [Pattern D, 3-(4-(4-aminopiperidin-1-yl)-3-(3,5-difluorophenyl)quinolin-6-yl)-2-hydroxybenzonitrile dimesylate]
XRPD pattern upon drying [1, 6]: converted to Pattern A

SMILES: CS(=O)(=O)O.CS(=O)(=O)O.N#Cc1cccc(-c2ccc3ncc(-c4cc(F)cc(F)c4)c(N4CCC(N)CC4)c3c2)c1O [Compound A⋅2MSA, 3-(4-(4-aminopiperidin-1-yl)-3-(3,5-difluorophenyl)quinolin-6-yl)-2-hydroxybenzonitrile dimesylate]
solubility relative to the HCl salt [2]: 12 ×

SMILES: CS(=O)(=O)O.CS(=O)(=O)O.N#Cc1cccc(-c2ccc3ncc(-c4cc(F)cc(F)c4)c(N4CCC(N)CC4)c3c2)c1O [Pattern C, 3-(4-(4-aminopiperidin-1-yl)-3-(3,5-difluorophenyl)quinolin-6-yl)-2-hydroxybenzonitrile dimesylate]
comments ([3]; FaSSGF (pH 1.70)): dissolved | Concentration ([3]; FaSSGF (pH 1.70), above calibration range): >7.75^b mg/mL | pH (24 hr) ([3]; FaSSGF (pH 1.70)): 1.84 | comments ([3]; FaSSIF (pH 6.48)): disproportionated | Concentration ([3]; FaSSIF (pH 6.48)): 0.010 mg/mL | pH (24 hr) ([3]; FaSSIF (pH 6.48)): 6.06 | comments ([3]; water): dissolved | Concentration ([3]; water, above calibration range): >6.59^b mg/mL | pH (24 hr) ([3]; water): 3.09 | XRPD pattern upon drying [1, 6]: stable upon drying | XRPD pattern after drying ([1]; vacuum oven at 50° C. under dynamic vacuum for 4.5 hours): a combination of Patterns C and I | XRPD pattern of wet sample left at ambient conditions ([4]; 24 hours): did not change | XRPD pattern after storage at ambient conditions ([4]; bulk, 6 days at ambient conditions, dimesylate): a pattern resembling Pattern I

SMILES: CS(=O)(=O)O.CS(=O)(=O)O.N#Cc1cccc(-c2ccc3ncc(-c4cc(F)cc(F)c4)c(N4CCC(N)CC4)c3c2)c1O [Pattern A, 3-(4-(4-aminopiperidin-1-yl)-3-(3,5-difluorophenyl)quinolin-6-yl)-2-hydroxybenzonitrile dimesylate]
amount added to 1.5 mL without formation of a slurry ([3]; FaSSGF): ~60 mg | amount added to 1.5 mL without formation of a slurry ([3]; water): approximately 80 mg | XRPD pattern upon drying [1, 6]: stable upon drying | reversible water uptake (DVS) [5]: 9.8 % w/w

Second part, the compound after the results:

XRPD pattern upon drying [1, 6]: converted to Pattern I
SMILES: CS(=O)(=O)O.CS(=O)(=O)O.N#Cc1cccc(-c2ccc3ncc(-c4cc(F)cc(F)c4)c(N4CCC(N)CC4)c3c2)c1O [Pattern G, 3-(4-(4-aminopiperidin-1-yl)-3-(3,5-difluorophenyl)quinolin-6-yl)-2-hydroxybenzonitrile dimesylate]

XRPD pattern upon drying [1, 7]: stable upon drying
SMILES: CS(=O)(=O)O.CS(=O)(=O)O.N#Cc1cccc(-c2ccc3ncc(-c4cc(F)cc(F)c4)c(N4CCC(N)CC4)c3c2)c1O [Pattern N, 3-(4-(4-aminopiperidin-1-yl)-3-(3,5-difluorophenyl)quinolin-6-yl)-2-hydroxybenzonitrile dimesylate]

XRPD pattern upon drying [1, 7]: lost crystallinity upon drying
SMILES: CS(=O)(=O)O.CS(=O)(=O)O.N#Cc1cccc(-c2ccc3ncc(-c4cc(F)cc(F)c4)c(N4CCC(N)CC4)c3c2)c1O [Pattern M, 3-(4-(4-aminopiperidin-1-yl)-3-(3,5-difluorophenyl)quinolin-6-yl)-2-hydroxybenzonitrile dimesylate]

XRPD pattern upon drying [1, 6]: converted to Pattern I
SMILES: CS(=O)(=O)O.CS(=O)(=O)O.N#Cc1cccc(-c2ccc3ncc(-c4cc(F)cc(F)c4)c(N4CCC(N)CC4)c3c2)c1O [Pattern H, 3-(4-(4-aminopiperidin-1-yl)-3-(3,5-difluorophenyl)quinolin-6-yl)-2-hydroxybenzonitrile dimesylate]

XRPD pattern upon drying [1, 7]: stable upon drying
SMILES: CS(=O)(=O)O.CS(=O)(=O)O.N#Cc1cccc(-c2ccc3ncc(-c4cc(F)cc(F)c4)c(N4CCC(N)CC4)c3c2)c1O [Pattern O, 3-(4-(4-aminopiperidin-1-yl)-3-(3,5-difluorophenyl)quinolin-6-yl)-2-hydroxybenzonitrile dimesylate]

XRPD pattern upon drying [1, 6]: converted to Pattern I
SMILES: CS(=O)(=O)O.CS(=O)(=O)O.N#Cc1cccc(-c2ccc3ncc(-c4cc(F)cc(F)c4)c(N4CCC(N)CC4)c3c2)c1O [Pattern F, 3-(4-(4-aminopiperidin-1-yl)-3-(3,5-difluorophenyl)quinolin-6-yl)-2-hydroxybenzonitrile dimesylate]
